Results published in patent US20080255193A1, “Pharmaceutical Composition” (priority 2005, published 2008).
In brackets after ≈: the same amount, converted by molar mass.

Test: Aqueous solubility of talnetant
Type: physicochemical
Settings: aqueous medium
Description: Talnetant has low aqueous solubility (approximately 0.03 mg/ml at pH 1 and 0.001 mg/ml, at pH 7.0). Typically drugs with low aqueous solubility are absorbed slowly across the walls of the gastrointestinal tract (GIT) due to poor dissolution of the solid in the GIT leading to a small diffusive driving force.

SMILES: CC[C@H](NC(=O)c1c(O)c(-c2ccccc2)nc2ccccc12)c1ccccc1 [Talnetant, (S)-(−)-N-(α-ethylbenzyl)-3-hydroxy-2-phenylquinoline-4-carboxamide]
- solubility (aqueous buffer, pH 7.0): ~1 µg/mL (≈ 2.61 µM)
- solubility (pH 1, simulated gastric fluid): ~30 µg/mL (≈ 78.4 µM)
